US20080261994A1, “CYCLOPROPANE COMPOUNDS AND PHARMACEUTICAL USE THEREOF” (Japan Tobacco Inc., priority 2003, published 2008)

Key:
Format in all cases: biochemical
[1] = target: T1, aggrecanase-1 (Homo sapiens, UniProt O75173); assay: Aggrecanase-1 inhibitory action (Particle Assay, GAG release from aggrecan-containing polyacrylamide particles); details: aggrecanase-1 inhibitory action; read-out: IC50 AG1 (Experimental Example 1)
T1 sequence (O75173 213-837): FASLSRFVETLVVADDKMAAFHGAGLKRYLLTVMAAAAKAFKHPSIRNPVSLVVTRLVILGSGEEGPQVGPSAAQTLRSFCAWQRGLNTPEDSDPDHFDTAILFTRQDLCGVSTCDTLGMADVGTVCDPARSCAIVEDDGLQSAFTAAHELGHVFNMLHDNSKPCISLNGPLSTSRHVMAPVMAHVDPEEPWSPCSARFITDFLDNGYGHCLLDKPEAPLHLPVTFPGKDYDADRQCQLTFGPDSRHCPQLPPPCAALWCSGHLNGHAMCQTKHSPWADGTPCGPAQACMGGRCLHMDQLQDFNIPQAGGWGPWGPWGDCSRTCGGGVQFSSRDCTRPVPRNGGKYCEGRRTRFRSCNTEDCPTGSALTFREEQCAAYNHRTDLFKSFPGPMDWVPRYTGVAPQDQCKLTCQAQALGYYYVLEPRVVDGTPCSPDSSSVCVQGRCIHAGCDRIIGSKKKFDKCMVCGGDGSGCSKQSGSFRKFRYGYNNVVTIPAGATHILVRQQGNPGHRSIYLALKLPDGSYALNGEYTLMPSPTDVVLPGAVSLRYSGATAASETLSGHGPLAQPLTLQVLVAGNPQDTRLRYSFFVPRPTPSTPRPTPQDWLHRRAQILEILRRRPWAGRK
Outline: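 Enzyme and compound incubated with aggrecan-containing polyacrylamide particles in Tris-HCl buffer at 37° C for 15 h. Released GAG in supernatant measured with 1,9-dimethylmethylene blue at 595 nm against chondroitin sulfate standard; % inhibition from enzyme-free and inhibitor-free wells, reported as TC50 (μM).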

[2] = target: T2, MMP-1 (Homo sapiens, UniProt P03956); assay: MMP-1 inhibitory action (Type I collagen Activity Measurement kit, FITC-labeled collagen type I); details: MMP-1 inhibitory action, FITC-labeled collagen type I, 37° C. for 3 hr; read-out: IC50 MMP1 (Experimental Example 2)
T2 sequence (P03956 100-469): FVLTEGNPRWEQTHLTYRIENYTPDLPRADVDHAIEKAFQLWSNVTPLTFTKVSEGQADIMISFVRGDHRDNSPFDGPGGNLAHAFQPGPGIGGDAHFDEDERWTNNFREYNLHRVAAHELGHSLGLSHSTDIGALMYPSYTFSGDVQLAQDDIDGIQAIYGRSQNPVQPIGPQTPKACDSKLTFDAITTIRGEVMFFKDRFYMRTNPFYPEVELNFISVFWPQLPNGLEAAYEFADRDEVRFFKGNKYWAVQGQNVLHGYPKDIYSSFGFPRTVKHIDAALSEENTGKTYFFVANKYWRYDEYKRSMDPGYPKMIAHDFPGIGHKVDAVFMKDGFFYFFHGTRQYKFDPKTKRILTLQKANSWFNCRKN

[3] = target: T3, Recombinant Human MMP-13 (Homo sapiens, UniProt P45452); assay: MMP-13 inhibitory activity (MMP-13 specific fluorescent substrate with quencher); details: Recombinant Human MMP-13, fluorescent substrate, 25° C. for 1 h; read-out: IC50 MMP13 (Experimental Example 3)
T3 construct: purchased R&D systems 511-MM
Outline: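 Recombinant human MMP-13 with test compound, reaction started with quenched fluorogenic peptide 7-MCA-Pro-CHA-Gly-NVal-His-Ala-DPA in Tris-HCl buffer, 1 h at 25 °C, stopped with acetic acid. Fluorescence at Ex 325/Em 405 nm; % inhibition versus enzyme-free and inhibitor-free wells, reported as IC50 (μM).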

Row | SMILES | IC50 [1] [µM] | IC50 [2] [µM] | IC50 [3] [µM]
1 | CC(C)C1(c2ccccc2)CC1(NS(=O)(=O)c1ccc(-c2ccc(Cl)cc2)s1)C(=O)O (stereo not drawn) [Example 2-123] | < 1 | ≥ 10 | < 1
2 | CC(F)(F)c1cc(-c2ccc(S(=O)(=O)N[C@@]3(C(=O)O)C[C@@H]3c3ccccc3)s2)ns1 [Example 2-124] | < 0.1 | ≥ 1 | < 0.1
3 | O=C(O)C1(NS(=O)(=O)N2CCc3c([nH]c4ccccc34)C2)CC1c1ccccc1 (stereo not drawn) [Example 2-125] | ≥ 10 | ≥ 10 | ≥ 10
4 | O=C(O)C1(NS(=O)(=O)N2CCn3c(nnc3-c3ccccc3)C2)CC1c1ccccc1 (stereo not drawn) [Example 2-126] | ≥ 10 | ≥ 10 | ≥ 10
5 | O=C(O)C1(NS(=O)(=O)N2CCC(Oc3ccc(Cl)cc3)CC2)CC1c1ccccc1 (stereo not drawn) [Example 2-128] | ≥ 10 | ≥ 10 | ≥ 10
6 | CCC1(c2ccccc2)CC1(NS(=O)(=O)c1ccc(-c2ccc(Cl)cc2)s1)C(=O)O (stereo not drawn) [Example 2-129] | < 1 | ≥ 10 | < 1
7 | CC(C)(O)C#Cc1ccc(S(=O)(=O)N[C@@]2(C(=O)O)C[C@@H]2c2ccccc2)s1 [Example 2-130] | ≥ 1 | ≥ 10 | ≥ 1
8 | C[C@]1(c2ccccc2)C[C@@]1(NS(=O)(=O)c1ccc(-c2ccc(Cl)cn2)s1)C(=O)O [Example 2-131] | < 0.1 | ≥ 1 | < 1
9 | CC(C)(C)C#Cc1ccc(S(=O)(=O)N[C@@]2(C(=O)O)C[C@@H]2c2ccccc2)s1 [Example 2-132] | ≥ 10 | ≥ 10 | ≥ 10
10 | CCCC#Cc1ccc(S(=O)(=O)N[C@@]2(C(=O)O)C[C@@H]2c2ccccc2)s1 [Example 2-133] | ≥ 10 | ≥ 10 | < 1
11 | O=C(O)[C@]1(NS(=O)(=O)c2ccc(-c3cccc(C(F)(F)F)c3)s2)C[C@@H]1c1ccccc1 [Example 2-134] | ≥ 10 | ≥ 10 | < 1
12 | O=C(O)[C@]1(NS(=O)(=O)c2ccc(-c3ccc(Cl)cc3)s2)C[C@@H]1c1cccc(Br)c1 [Example 2-136] | < 1 | ≥ 1 | < 0.1
13 | O=C(O)[C@]1(NS(=O)(=O)c2ccc(-c3cc(CF)on3)cc2)C[C@@H]1c1ccccc1 [Example 2-137] | ≥ 1 | < 1 | < 0.1
14 | O=C1O[C@@H]([C@H]2C[C@@]2(NS(=O)(=O)c2ccc(-c3ccc(Cl)cc3)s2)C(=O)O)CN1Cc1ccccc1 [Example 2-139] | ≥ 1 | ≥ 10 | ≥ 1
15 | O=C(O)[C@]1(NS(=O)(=O)/C=C/c2ccccc2)C[C@@H]1c1ccccc1 [Example 2-140] | ≥ 10 | ≥ 10 | ≥ 1
16 | O=C(O)[C@]1(NS(=O)(=O)c2ccc3c(c2)Cc2cc(F)ccc2-3)C[C@@H]1c1ccccc1 [Example 2-141] | < 1 | ≥ 1 | < 0.1
17 | O=C(O)[C@]1(NS(=O)(=O)c2ccc3c(c2)Cc2cc(Cl)ccc2-3)C[C@@H]1c1ccccc1 [Example 2-142] | < 0.1 | ≥ 1 | < 1
18 | O=C(O)C1(NS(=O)(=O)N2CCC(Oc3ccccc3)CC2)CC1c1ccccc1 (stereo not drawn) [Example 2-143] | ≥ 10 | ≥ 10 | ≥ 1
19 | O=C(O)C1(NS(=O)(=O)N2CCC(Oc3ccc(C(F)(F)F)cc3)CC2)CC1c1ccccc1 (stereo not drawn) [Example 2-144] | ≥ 10 | ≥ 10 | ≥ 1
20 | O=C(O)C1(NS(=O)(=O)N2CCC(Oc3ccc(F)cc3)CC2)CC1c1ccccc1 (stereo not drawn) [Example 2-145] | ≥ 10 | ≥ 10 | ≥ 1
21 | CCC1(c2ccccc2)CC1(NS(=O)(=O)c1ccc2c(c1)Cc1cc(F)ccc1-2)C(=O)O (stereo not drawn) [Example 2-146] | < 1 | ≥ 10 | < 1
22 | CC1(C)CC1(NS(=O)(=O)c1ccc(-c2ccc(Cl)cc2)s1)C(=O)O (stereo not drawn) [Example 2-147] | ≥ 1 | ≥ 10 | ≥ 1
23 | O=C(O)C1(NS(=O)(=O)N2CC=C(c3ccccc3)CC2)CC1c1ccccc1 (stereo not drawn) [Example 2-148] | ≥ 1 | ≥ 10 | < 1
24 | O=C(O)C1(NS(=O)(=O)N2CC=C(c3ccc(Cl)cc3)CC2)CC1c1ccccc1 (stereo not drawn) [Example 2-149] | ≥ 1 | ≥ 10 | < 0.1
25 | O=C(O)[C@@]1(NS(=O)(=O)c2ccc(-c3ccc(Cl)cc3)s2)C[C@H]1c1cccc(Br)c1 [Example 2-150] | < 1 | ≥ 1 | < 1
26 | O=C(O)[C@]1(NS(=O)(=O)/C=C/c2ccc(Cl)cc2)C[C@@H]1c1ccccc1 [Example 2-151] | ≥ 10 | ≥ 10 | ≥ 1

Results, then the molecule that gave them:

Row | IC50 [1] [µM] | IC50 [2] [µM] | IC50 [3] [µM] | SMILES
27 | < 1 | ≥ 10 | < 0.1 | O=C(O)[C@]1(NS(=O)(=O)c2ccc(-c3cc(C(F)F)on3)cc2)C[C@@H]1c1ccccc1 [Example 2-152]
28 | ≥ 10 | ≥ 10 | ≥ 1 | O=C(O)[C@]1(NS(=O)(=O)/C=C/c2cccc(Cl)c2)C[C@@H]1c1ccccc1 [Example 2-153]
29 | ≥ 1 | ≥ 10 | < 1 | O=C(O)[C@]1(NS(=O)(=O)c2ccc(-c3noc4c3CCCC4)s2)C[C@@H]1c1ccccc1 [Example 2-154]
30 | ≥ 1 | ≥ 10 | < 1 | O=C(O)C1(NS(=O)(=O)N2CCN(c3ncc(Br)cn3)CC2)CC1c1ccccc1 (stereo not drawn) [Example 2-155]
31 | ≥ 1 | ≥ 10 | ≥ 1 | O=C(O)C1(NS(=O)(=O)N2CCn3c(cc4cc(Cl)ccc43)C2)CC1c1ccccc1 (stereo not drawn) [Example 2-156]
32 | ≥ 10 | ≥ 10 | ≥ 1 | O=C(O)C1(NS(=O)(=O)N2CCN(c3nc4ccccc4s3)CC2)CC1c1ccccc1 (stereo not drawn) [Example 2-157]
33 | ≥ 10 | ≥ 10 | ≥ 10 | O=C(O)C1(NS(=O)(=O)N2CCN(Cc3ccccc3)CC2)CC1c1ccccc1 (stereo not drawn) [Example 2-158]
34 | ≥ 10 | ≥ 10 | ≥ 10 | O=C(c1ccc(Cl)cc1)N1CCN(S(=O)(=O)NC2(C(=O)O)CC2c2ccccc2)CC1 (stereo not drawn) [Example 2-159]
35 | ≥ 10 | ≥ 10 | ≥ 10 | O=C(c1cccc(Cl)c1)N1CCN(S(=O)(=O)NC2(C(=O)O)CC2c2ccccc2)CC1 (stereo not drawn) [Example 2-160]
36 | ≥ 10 | ≥ 10 | ≥ 1 | O=C(O)[C@]1(NS(=O)(=O)/C=C/c2ccc(C(F)(F)F)cc2)C[C@@H]1c1ccccc1 [Example 2-161]
37 | ≥ 10 | ≥ 10 | ≥ 10 | O=C(O)[C@]1(NS(=O)(=O)/C=C/c2cccc(C(F)(F)F)c2)C[C@@H]1c1ccccc1 [Example 2-162]
38 | ≥ 10 | ≥ 10 | ≥ 10 | O=C1CCCN1c1ccc(S(=O)(=O)N[C@@]2(C(=O)O)C[C@@H]2c2ccccc2)s1 [Example 2-163]
39 | ≥ 10 | ≥ 10 | ≥ 10 | O=C1CCCCN1c1ccc(S(=O)(=O)N[C@@]2(C(=O)O)C[C@@H]2c2ccccc2)s1 [Example 2-164]
40 | ≥ 10 | ≥ 10 | ≥ 1 | Nc1ccc(S(=O)(=O)NC2(C(=O)O)CC2c2ccccc2)s1 (stereo not drawn) [Example 2-165]
